Measurements: patent US20230183193A1, “4-DIFLUOROMETHYL BENZOYL AMIDES WITH HERBICIDAL ACTION” (BAYER CROPSCIENCE AKTIENGESELLSCHAFT, priority 2017, published 2023)

Tests used:
[1] = system: Stellaria media; test: Pre-emergence herbicidal action, STEME; type: in vivo; details: for Herbicidal efficacy against STEME: comparison with WO 2011035874, Table H
Outline: (§1)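 Percent herbicidal activity rated by eye 3 weeks after pre-emergence soil-surface application, compared with untreated pots. Seeds sat under sandy loam; sprays carried 0.2% wetting agent.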

[2] = system: Stellaria media; test: Post-emergence herbicidal action, STEME; type: in vivo
Outline: (§2)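 Greenhouse-grown plants were sprayed at the one-leaf stage, 2–3 weeks after sowing. Damage was scored visually after about 3 weeks against untreated controls, as % action (100% = dead, 0% = like control).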

[3] = system: Alopecurus myosuroides; test: Post-emergence herbicidal action, ALOMY; type: in vivo
Outline: as §2

[4] = system: Polygonum convolvulus; test: Pre-emergence herbicidal action, POLCO; type: in vivo
Source text: (§3) 1. Pre-Emergence Herbicidal Action Against Harmful Plants Seeds of monocotyledonous and dicotyledonous weed plants and crop plants are laid out in sandy loam soil in wood-fiber pots and covered with soil. The compounds of the invention, formulated in the form of wettable powders (WP) or as emulsion concentrates (EC), are then applied to the surface of the covering soil in the form of an aqueous suspension or emulsion at a water application rate equating to […], with addition of 0.2% wetting agent. After the treatment, the pots are placed in a greenhouse and kept under good growth conditions for the trial plants. The damage to the test plants is scored visually after a test period of 3 weeks by comparison with untreated controls (herbicidal activity in percent (%): 100% activity=the plants have died, 0% activity=like control plants).
(§4) For comparison, the herbicidal activity of numerous compounds according to the invention was tested with the structurally closest compounds known from the documents WO 2011/035874, WO 2012/028579 and WO 2012/126932, by the pre- and post-emergence method.

[5] = system: Setaria viridis; test: Pre-emergence herbicidal action, SETVI; type: in vivo
Outline: as §1

[6] = system: Viola tricolor; test: Post-emergence herbicidal action, VIOTR; type: in vivo
Outline: as §2

[7] = system: ECHCG; test: Post-emergence herbicidal action, ECHCG; type: in vivo; details: 80 g/ha, Table C
Outline: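 Weed and crop plants grown in sandy loam in the greenhouse, treated at the one-leaf stage 2–3 weeks after sowing. Damage scored visually after about 3 weeks vs untreated controls (0% = control, 100% = dead).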

[8] = system: Amaranthus retroflexus; test: Post-emergence herbicidal action, AMARE; type: in vivo; details: 80 g/ha
Outline: as §2

[9] = system: Avena fatua; test: Post-emergence herbicidal action, AVEFA; type: in vivo
Outline: as §2

[10] = system: Cyperus serotinus; test: Pre-emergence herbicidal action, CYPES; type: in vivo
Outline: as §1

[11] = system: Abutilon theophrasti; test: Pre-emergence herbicidal action, ABUTH; type: in vivo
Outline: as §1

[12] = system: Amaranthus retroflexus; test: Pre-emergence herbicidal action, AMARE; type: in vivo; details: for Herbicidal efficacy against AMARE: comparison with WO 2011035874, Table H
Outline: as §1

[13] = system: Setaria viridis; test: Post-emergence herbicidal action, SETVI; type: in vivo
Outline: as §2

[14] = system: Pharbitis purpureum; test: Post-emergence herbicidal action, PHBPU; type: in vivo; details: 80 g/ha
Outline: as §2

[15] = system: Matricaria inodora; test: Pre-emergence herbicidal action, MATIN; type: in vivo; details: for Herbicidal efficacy against MATIN: Table K
Outline: as §1

[16] = system: ECHCG; test: Pre-emergence herbicidal action, ECHCG; type: in vivo; details: comparison with WO 2011035874, Table G
Source text: as §3

[17] = system: Veronica persica; test: Pre-emergence herbicidal action, VERPE; type: in vivo; details: comparison with WO 2011035874, Table H
Source text: as §3, §4

[18] = system: ECHCG; test: Pre-emergence herbicidal action, ECHCG; type: in vivo, Echinochloa crus-galli
[19] = system: Avena fatua; test: Pre-emergence herbicidal action, AVEFA; type: in vivo
Outline: as §1

[20] = system: Abutilon theophrasti; test: Post-emergence herbicidal action, ABUTH; type: in vivo; details: 80 g/ha
Outline: as §2

[21] = system: Alopecurus myosuroides; test: Pre-emergence herbicidal action, ALOMY; type: in vivo
Outline: as §1

[22] = system: Viola tricolor; test: Pre-emergence herbicidal action, VIOTR; type: in vivo
Outline: as §1

[23] = system: Veronica persica; test: Post-emergence herbicidal action, VERPE; type: in vivo; details: 80 g/ha, comparison with WO 2011035874, Table E
Procedure: (§5) Seeds of monocotyledonous and dicotyledonous weed and crop plants are laid out in sandy loam soil in wood-fiber pots, covered with soil and cultivated in a greenhouse under good growth conditions. 2 to 3 weeks after sowing, the test plants are treated at the one-leaf stage. The compounds of the invention, formulated in the form of wettable powders (WP) or as emulsion concentrates (EC), are then sprayed onto the green parts of the plants in the form of an aqueous suspension or emulsion at a water application rate equating to […], with addition of 0.2% wetting agent. After the test plants have been left to stand in the greenhouse under optimal growth conditions for about 3 weeks, the action of the preparations is assessed visually in comparison to untreated controls (herbicidal action in percent (%): 100% activity=the plants have died, 0% activity=like control plants). […] At the same time, inventive compounds leave Gramineae crops such as barley, wheat, rye, millet/sorghum, corn or rice virtually undamaged when applied post-emergence, even at high active compound dosages. In addition, some substances are also harmless to dicotyledonous crops such as soya, cotton, oilseed rape, sugar beet or potatoes. Some of the compounds according to the invention have high selectivity and are therefore suitable for controlling unwanted vegetation in agricultural crops by the post-emergence method. The data of Tables C and D below illustrate, in an exemplary manner, the […] herbicidal action of the compounds according to the invention, the herbicidal activity being stated in percent.
as §4

[24] = system: Matricaria inodora; test: Post-emergence herbicidal action, MATIN; type: in vivo; details: 80 g/ha
Procedure: as §5, §4

[25] = dosage 320 g/ha, scored visually after 3 weeks vs untreated controls
[26] = 80 g/ha, comparison with WO2011035874, Table F
[27] = 80 g/ha, comparison with WO 2011035874, Table H
[28] = 80 g/ha, comparison with WO 2011035874, Table G
[29] = comparison with WO2011035874, Table F
[30] = 80 g/ha, comparison with WO 2011035874, Table E
[31] = comparison with WO 2011035874, Table E
[32] = 320 g/ha, comparison with WO 2011035874, Table H
[33] = 320 g/ha, comparison with WO 2011035874, Table G

Cn1nnnc1NC(=O)c1ccc(C(F)F)c(S(C)(=O)=O)c1Cl [Example 1-51]
60%: Herbicidal efficacy against SETVI [5, 28] | Herbicidal efficacy against VIOTR [22, 27]
0%: Herbicidal efficacy against POLCO [4, 27] | Herbicidal efficacy against CYPES [10, 28] | Herbicidal efficacy against AVEFA [19, 28]
80%: Herbicidal efficacy against ABUTH [20, 29]
90%: Herbicidal efficacy against STEME ([1]; 80 g/ha)
100%: Herbicidal activity STEME [1, 25] | Herbicidal activity STEME ([2]; 80 g/ha, Table D) | herbicidal activity ALOMY ([3]; 80 g/ha, Table C) | herbicidal activity SETVI [5, 25] | herbicidal activity VIOTR ([6]; 80 g/ha, Table D) | Herbicidal activity ECHCG [7] | herbicidal activity AMARE ([8]; Table D) | herbicidal activity AVEFA ([9]; 80 g/ha, Table C) | herbicidal activity CYPES [10, 25] | Herbicidal efficacy against ABUTH [11, 28] | herbicidal activity ABUTH [11, 25] | Herbicidal efficacy against AMARE ([12]; 80 g/ha) | herbicidal activity AMARE [12, 25] | herbicidal activity SETVI ([13]; 80 g/ha, Table C) | Herbicidal activity PHBPU ([14]; Table D) | herbicidal activity MATIN [15, 25] | Herbicidal efficacy against VERPE ([17]; 80 g/ha) | herbicidal activity AVEFA [19, 25] | herbicidal activity ABUTH ([20]; Table D) | herbicidal activity ALOMY [21, 25] | herbicidal activity VIOTR [22, 25]
30%: Herbicidal efficacy against ECHCG ([16]; 80 g/ha)
40: Herbicidal efficacy against ALOMY ([3]; 5 g/ha)
80: Herbicidal efficacy against POLCO ([4]; dosage 80 g/ha, Table K) | Herbicidal efficacy against ALOMY ([21]; 20 g/ha)
90: Herbicidal efficacy against ALOMY ([3]; 20 g/ha) | Herbicidal efficacy against POLCO ([4]; dosage 320 g/ha, Table K) | Herbicidal efficacy against AVEFA ([9]; 20 g/ha) | Herbicidal efficacy against CYPES ([10]; 20 g/ha) | Herbicidal efficacy against CYPES ([10]; 80 g/ha) | Herbicidal efficacy against SETVI ([13]; 5 g/ha) | Herbicidal efficacy against MATIN ([15]; dosage 20 g/ha) | Herbicidal efficacy against AVEFA ([19]; 80 g/ha)
10%: Herbicidal efficacy against ALOMY [21, 28]
30: Herbicidal efficacy against POLCO ([4]; dosage 20 g/ha, Table K)
60: Herbicidal efficacy against AVEFA ([9]; 5 g/ha)
100: Herbicidal efficacy against STEME ([2]; 5 g/ha) | Herbicidal efficacy against STEME ([2]; 20 g/ha) | Herbicidal efficacy against STEME ([2]; 80 g/ha) | Herbicidal efficacy against ALOMY ([3]; 80 g/ha) | Herbicidal efficacy against SETVI ([5]; 20 g/ha) | Herbicidal efficacy against SETVI ([5]; 80 g/ha) | Herbicidal efficacy against SETVI ([5]; 320 g/ha) | Herbicidal efficacy against VIOTR ([6]; 5 g/ha) | Herbicidal efficacy against VIOTR ([6]; 20 g/ha) | Herbicidal efficacy against VIOTR ([6]; 80 g/ha) | Herbicidal efficacy against AVEFA ([9]; 80 g/ha) | Herbicidal efficacy against CYPES ([10]; 320 g/ha) | Herbicidal efficacy against ABUTH ([11]; dosage 20 g/ha, Table K) | Herbicidal efficacy against ABUTH ([11]; dosage 80 g/ha, Table K) | Herbicidal efficacy against ABUTH ([11]; dosage 320 g/ha, Table K) | Herbicidal efficacy against SETVI ([13]; 20 g/ha) | Herbicidal efficacy against SETVI ([13]; 80 g/ha) | Herbicidal efficacy against MATIN ([15]; dosage 80 g/ha) | Herbicidal efficacy against MATIN ([15]; dosage 320 g/ha) | Herbicidal efficacy against ECHCG ([18]; 20 g/ha) | Herbicidal efficacy against ECHCG ([18]; 80 g/ha) | Herbicidal efficacy against ECHCG ([18]; 320 g/ha) | Herbicidal efficacy against AVEFA ([19]; 320 g/ha) | Herbicidal efficacy against ALOMY ([21]; 80 g/ha) | Herbicidal efficacy against ALOMY ([21]; 320 g/ha) | Herbicidal efficacy against VIOTR ([22]; dosage 20 g/ha, Table K) | Herbicidal efficacy against VIOTR ([22]; dosage 80 g/ha, Table K) | Herbicidal efficacy against VIOTR ([22]; dosage 320 g/ha, Table K)
40%: Herbicidal efficacy against STEME [2, 26]

Cn1nnnc1NC(=O)c1ccc(C(F)F)c(S(=O)(=O)CC2CC2)c1I [Example 1-81]
10%: Herbicidal efficacy against POLCO [4, 27] | Herbicidal efficacy against SETVI [5, 28] | Herbicidal efficacy against PHBPU [14, 31] | Herbicidal efficacy against ECHCG ([16]; 80 g/ha) | Herbicidal efficacy against MATIN [24, 31]
70%: Herbicidal efficacy against VERPE ([17]; 80 g/ha)
40%: Herbicidal efficacy against AVEFA [19, 28]
20%: Herbicidal efficacy against ABUTH [11, 28]
0%: Herbicidal efficacy against STEME [2, 30] | Herbicidal efficacy against VIOTR [6, 30] | Herbicidal efficacy against CYPES [10, 28] | Herbicidal efficacy against ALOMY [21, 28]
60%: Herbicidal efficacy against AMARE [8, 31] | Herbicidal efficacy against AMARE ([12]; 80 g/ha)
30%: Herbicidal efficacy against VERPE [23] | Herbicidal efficacy against ABUTH [20, 31]
50%: Herbicidal efficacy against STEME ([1]; 80 g/ha)
90%: Herbicidal efficacy against VIOTR [22, 27]

CC[S+]([O-])c1c(C(F)F)ccc(C(=O)Nc2nnnn2C)c1I (stereo not drawn) [Example 1-77]
10%: Herbicidal efficacy against ALOMY [21, 33]
100%: Herbicidal efficacy against ABUTH [11, 33] | Herbicidal efficacy against AMARE ([12]; 320 g/ha)
0%: Herbicidal efficacy against AVEFA [19, 33] | Herbicidal efficacy against MATIN [24, 29]
90%: Herbicidal efficacy against VERPE ([17]; 320 g/ha)
30%: Herbicidal efficacy against POLCO [4, 32] | Herbicidal efficacy against CYPES [10, 33]
20%: Herbicidal efficacy against SETVI [5, 33]
70%: Herbicidal efficacy against ECHCG ([16]; 320 g/ha)
40%: Herbicidal efficacy against PHBPU [14, 29]
60%: Herbicidal efficacy against VIOTR [6, 26] | Herbicidal efficacy against VIOTR [22, 32]
80%: Herbicidal efficacy against STEME ([1]; 320 g/ha) | Herbicidal efficacy against STEME [2, 26]
